Test results published in ChEMBL document CHEMBL1649565, “Besifloxacin, a novel fluoroquinolone, has broad-spectrum in vitro activity against aerobic and anaerobic bacteria” (Antimicrob Agents Chemother, 2009).
Active and inactive are the calls of the source.

Legend:
[1] = test system: Enterococcus faecalis; test: Antibacterial activity against vancomycin- resistant Enterococcus faecalis by CLSI M100-S18 method; format: functional
[2] = test system: Enterococcus faecium; test: Antibacterial activity against vancomycin- resistant Enterococcus faecium by CLSI M100-S18 method; format: functional
[3] = test system: Listeria monocytogenes; test: Antibacterial activity against Listeria monocytogenes by CLSI M100-S18 method; format: functional
[4] = test system: Staphylococcus aureus; test: Antibacterial activity against ciprofloxacin-susceptible and methicillin-resistant Staphylococcus aureus by CLSI M100-S18 method; format: functional
[5] = test system: Staphylococcus aureus; test: Antibacterial activity against non-ciprofloxacin-susceptible and methicillin-susceptible Staphylococcus aureus by CLSI M100-S18 method; format: functional
[6] = test system: Staphylococcus epidermidis; test: Antibacterial activity against ciprofloxacin-susceptible and methicillin-resistant Staphylococcus epidermidis by CLSI M100-S18 method; format: functional
[7] = test system: Staphylococcus lugdunensis; test: Antibacterial activity against Staphylococcus lugdunensis by CLSI M100-S18 method; format: functional
[8] = test system: Staphylococcus warneri; test: Antibacterial activity against Staphylococcus warneri by CLSI M100-S18 method; format: functional
[9] = test system: Streptococcus agalactiae; test: Antibacterial activity against Streptococcus agalactiae by CLSI M100-S18 method; format: functional
[10] = test system: Streptococcus sp.; test: Antibacterial activity against Lancefield Streptococcus sp. group F by CLSI M100-S18 method; format: functional
[11] = Antibacterial activity against Lancefield Streptococcus sp. 'group G' by CLSI M100-S18 method; format: functional
[12] = test system: Streptococcus pneumoniae; test: Antibacterial activity against levofloxacin-susceptible Streptococcus pneumoniae by CLSI M100-S18 method; format: functional
[13] = test system: Streptococcus pneumoniae; test: Antibacterial activity against non-levofloxacin susceptible Streptococcus pneumoniae by CLSI M100-S18 method; format: functional
[14] = test system: Streptococcus pyogenes; test: Antibacterial activity against Streptococcus pyogenes by CLSI M100-S18 method; format: functional
[15] = test system: Streptococcus anginosus; test: Antibacterial activity against Streptococcus anginosus by CLSI M100-S18 method; format: functional
[16] = test system: Streptococcus constellatus; test: Antibacterial activity against Streptococcus constellatus by CLSI M100-S18 method; format: functional
[17] = test system: Streptococcus intermedius; test: Antibacterial activity against Streptococcus intermedius by CLSI M100-S18 method; format: functional
[18] = test system: Streptococcus mitis; test: Antibacterial activity against Streptococcus mitis by CLSI M100-S18 method; format: functional
[19] = test system: Streptococcus salivarius; test: Antibacterial activity against Streptococcus salivarius by CLSI M100-S18 method; format: functional
[20] = test system: Acinetobacter calcoaceticus; test: Antibacterial activity against Acinetobacter calcoaceticus by CLSI M7-A7 method; format: functional
[21] = test system: Citrobacter freundii; test: Antibacterial activity against Citrobacter freundii by CLSI M7-A7 method; format: functional
[22] = test system: Citrobacter koseri; test: Antibacterial activity against Citrobacter koseri by CLSI M7-A7 method; format: functional
[23] = test system: Klebsiella aerogenes; test: Antibacterial activity against Enterobacter aerogenes by CLSI M7-A7 method; format: functional
[24] = test system: Haemophilus influenzae; test: Antibacterial activity against ciprofloxacin-susceptible Haemophilus influenzae by CLSI M7-A7 method; format: functional
[25] = test system: Haemophilus influenzae; test: Antibacterial activity against non-ciprofloxacin-susceptible Haemophilus influenzae by CLSI M7-A7 method; format: functional
[26] = test system: Klebsiella oxytoca; test: Antibacterial activity against Klebsiella oxytoca by CLSI M7-A7 method; format: functional
[27] = test system: Klebsiella pneumoniae; test: Antibacterial activity against Klebsiella pneumoniae by CLSI M7-A7 method; format: functional
[28] = test system: Legionella pneumophila; test: Antibacterial activity against Legionella pneumophila by CLSI M7-A7 method; format: functional
[29] = test system: Moraxella catarrhalis; test: Antibacterial activity against Moraxella catarrhalis by CLSI M7-A7 method; format: functional
[30] = test system: Proteus mirabilis; test: Antibacterial activity against Proteus mirabilis by CLSI M7-A7 method; format: functional
[31] = test system: Pseudomonas aeruginosa; test: Antibacterial activity against ciprofloxacin-susceptible Pseudomonas aeruginosa by CLSI M7-A7 method; format: functional
[32] = test system: Pseudomonas aeruginosa; test: Antibacterial activity against non-ciprofloxacin-susceptible Pseudomonas aeruginosa by CLSI M7-A7 method; format: functional
[33] = test system: Stenotrophomonas maltophilia; test: Antibacterial activity against non-levofloxacin susceptible Stenotrophomonas maltophilia by CLSI M7-A7 method; format: functional
[34] = test system: Staphylococcus epidermidis; test: Antibacterial activity against ciprofloxacin-susceptible and methicillin-resistant Staphylococcus epidermidis assessed as percent susceptible isolates by CLSI M100-S18 method; format: functional
[35] = test system: Staphylococcus haemolyticus; test: Antibacterial activity against Staphylococcus haemolyticus assessed as percent susceptible isolates by CLSI M100-S18 method; format: functional
[36] = test system: Staphylococcus hominis; test: Antibacterial activity against Staphylococcus hominis assessed as percent susceptible isolates by CLSI M100-S18 method; format: functional
[37] = test system: Staphylococcus saprophyticus; test: Antibacterial activity against Staphylococcus saprophyticus assessed as percent susceptible isolates by CLSI M100-S18 method; format: functional
[38] = test system: Streptococcus pneumoniae; test: Antibacterial activity against non-levofloxacin susceptible Streptococcus pneumoniae assessed as percent susceptible isolates by CLSI M100-S18 method; format: functional
[39] = test system: Citrobacter freundii; test: Antibacterial activity against Citrobacter freundii assessed as percent susceptible isolates by CLSI M7-A7 method; format: functional
[40] = test system: Klebsiella aerogenes; test: Antibacterial activity against Enterobacter aerogenes assessed as percent susceptible isolates by CLSI M7-A7 method; format: functional
[41] = test system: Enterobacter cloacae; test: Antibacterial activity against Enterobacter cloacae assessed as percent susceptible isolates by CLSI M7-A7 method; format: functional
[42] = test system: Haemophilus influenzae; test: Antibacterial activity against ciprofloxacin-susceptible Haemophilus influenzae assessed as percent susceptible isolates by CLSI M7-A7 method; format: functional
[43] = test system: Haemophilus influenzae; test: Antibacterial activity against non-ciprofloxacin-susceptible Haemophilus influenzae assessed as percent susceptible isolates by CLSI M7-A7 method; format: functional
[44] = test system: Proteus mirabilis; test: Antibacterial activity against Proteus mirabilis assessed as percent susceptible isolates by CLSI M7-A7 method; format: functional
[45] = test system: Stenotrophomonas maltophilia; test: Antibacterial activity against levofloxacin-susceptible Stenotrophomonas maltophilia by CLSI M7-A7 method; format: functional
[46] = test system: Staphylococcus epidermidis
[47] = test system: Staphylococcus epidermidis; remark: listed apart in the source

NC[C@H]1O[C@H](O[C@H]2[C@H](O)[C@@H](O[C@H]3O[C@H](CO)[C@@H](O)[C@H](N)[C@H]3O)[C@H](N)C[C@@H]2N)[C@H](N)C[C@@H]1O [TOBRAMYCIN]
0.12 µg/mL: MIC50 [3] | MIC90 [3] | MIC50 [7] | MIC50 [28]
16 µg/mL: MIC50 [1] | MIC90 [12] | MIC90 [13] | MIC50 [14] | MIC90 [14] | MIC50 [15]
> 128 µg/mL: MIC90 [1] | MIC50 [2] | MIC90 [2]
inactive: Activity [38] | Activity [42] | Activity [43] | MIC90 [46] | MIC90 [47]
32 µg/mL: MIC90 [7] | MIC90 [15]
0.25 µg/mL: MIC50 [20] | MIC50 [21] | MIC50 [27]
16%: Activity [36]
0.5 µg/mL: MIC50 [4] | MIC90 [21] | MIC50 [22] | MIC50 [23] | MIC50 [26]
> 8 µg/mL: MIC90 [9] | MIC90 [10] | MIC90 [11] | MIC90 [16] | MIC90 [17] | MIC90 [18] | MIC90 [19] | MIC90 [32] | MIC [33]
99%: Activity [39]
4 µg/mL: MIC50 [25] | MIC90 [30]
33.3%: Activity [34]
54.5%: Activity [37]
26.7%: Activity [35]
8 µg/mL: MIC90 [8] | MIC50 [12] | MIC50 [13] | MIC90 [23] | MIC90 [24] | MIC90 [25] | MIC50 [32]
> 32 µg/mL: MIC90 [5]
2 µg/mL: MIC50 [24] | MIC50 [31] | MIC90 [31] | MIC [45]
100%: Activity [40] | Activity [41] | Activity [44]
0.06 µg/mL: MIC50 [8] | MIC50 [9] | MIC50 [10] | MIC50 [11] | MIC50 [16] | MIC50 [17] | MIC50 [18] | MIC50 [19]
1 µg/mL: MIC90 [4] | MIC50 [5] | MIC90 [20] | MIC90 [22] | MIC90 [26] | MIC90 [27] | MIC90 [28] | MIC50 [30]
0.03 µg/mL: MIC50 [6] | MIC50 [29] | MIC90 [29]
